Values quoted from earlier work in the PKSmart pharmacokinetics tables (Seal et al. 2025).

What was measured:
[1] = Lombardo, Berellini, Obach 2018, Drug Metab Dispos 46:1466, doi 10.1124/dmd.118.082966; settings: human; for MRT / Vd / clearance / half-life: in vivo, iv; for fraction unbound: plasma
[2] = Lombardo et al. 2013, J Clin Pharmacol 53:178, doi 10.1177/0091270012440282; settings: for Vd / clearance: in vivo, iv; for fraction unbound: plasma

Compound | MRT [1] | Vd [1] | clearance [1] | half-life [1] | Vd ([2]; dog) | clearance ([2]; dog) | Vd ([2]; rat) | clearance ([2]; rat) | fraction unbound ([2]; rat) | fraction unbound [1] | fraction unbound ([2]; dog) | Vd ([2]; monkey) | clearance ([2]; monkey) | fraction unbound ([2]; monkey)
CS(=O)(=O)OCCCCOS(C)(=O)=O | 3.8 h | 0.55 L/kg | 2.4 mL/min/kg | 204 min | 1 L/kg | 19.2 mL/min/kg | 0.68 L/kg | 5 mL/min/kg | 0.91 | – | – | – | – | –
Oc1ccc2c3c1O[C@H]1[C@@H](O)CC[C@@]4(O)[C@@H](C2)N(CC2CCC2)CC[C@]314 | 3.5 h | 4.6 L/kg | 22 mL/min/kg | 222 min | – | – | 11 L/kg | 111 mL/min/kg | – | – | – | – | – | –
Cc1cccnc1NS(=O)(=O)c1ccc(C#Cc2ccc(O)c(C(=O)O)c2)cc1 | 23.8 h | 0.1 L/kg | 0.07 mL/min/kg | 960 min | 0.19 L/kg | 20 mL/min/kg | 1.2 L/kg | 62 mL/min/kg | 0.0033 | 0.0019 | 0.01 | 0.08 L/kg | 1.9 mL/min/kg | 0.003
C[C@]12CC[C@@H]3c4ccc(OC(=O)N(CCCl)CCCl)cc4CC[C@H]3[C@@H]1CC[C@@H]2OP(=O)(O)O | 2.1 h | 0.12 L/kg | 0.94 mL/min/kg | 144 min | 0.16 L/kg | 2 mL/min/kg | – | – | – | 0.5 | – | – | – | –
COC(=O)CCc1ccc(OCC(O)CNC(C)C)cc1 (configuration not stated) | 0.07 h | 1.2 L/kg | 290 mL/min/kg | 9 min | 3.4 L/kg | 1500 mL/min/kg | – | – | 0.71 | 0.59 | 0.62 | – | – | –
CCN(C(C)=O)c1cccc(-c2ccnc3c(C#N)cnn23)c1 | 1.4 h | 1.3 L/kg | – | – | – | – | 1.72 L/kg | 20.7 mL/min/kg | – | 0.4 | – | – | – | –
C[C@@H](O)C1C(=O)N2C(C(=O)O)=C(S[C@@H]3CNC(C(=O)N(C)C)C3)[C@H](C)[C@H]12 (some centres not stated) | 1.3 h | 0.3 L/kg | 3.9 mL/min/kg | 60 min | 0.22 L/kg | 4 mL/min/kg | 0.14 L/kg | 26.4 mL/min/kg | 0.5 | 0.87 | 0.726 | 0.23 L/kg | 7.5 mL/min/kg | 0.666
O=C(NCC1CCCCN1)c1cc(OCC(F)(F)F)ccc1OCC(F)(F)F (configuration not stated) | 21 h | 6.1 L/kg | – | 720 min | 1.1 L/kg | – | 6.9 L/kg | – | – | – | 0.3 | – | – | –
CON=C(C(=O)NC1C(=O)N2C(C(=O)O)=C(COC(C)=O)CS[C@H]12)c1csc(N)n1 (some centres not stated) | 1.2 h | 0.19 L/kg | 2.7 mL/min/kg | 72 min | 0.5 L/kg | 8.13 mL/min/kg | – | – | 0.59 | 0.6 | – | – | – | –
C[C@@H]1O[C@@H]1P(=O)(O)O | 2.7 h | 0.32 L/kg | 2 mL/min/kg | 114 min | 0.77 L/kg | 6.9 mL/min/kg | – | – | – | – | 1 | – | – | –
CN1CC[C@]23c4c5ccc(O)c4OC2C(=O)CC[C@H]3[C@H]1C5 (some centres not stated) | – | – | – | 138 min | 5.8 L/kg | 71 mL/min/kg | – | – | – | – | – | – | – | –
CCCN1CCCCC1C(=O)Nc1c(C)cccc1C (configuration not stated) | 2.3 h | 0.75 L/kg | 5.5 mL/min/kg | 132 min | 1.42 L/kg | 30 mL/min/kg | – | – | – | 0.06 | – | – | – | –
Cc1ccc(-c2nc3ccc(C)cn3c2CC(=O)N(C)C)cc1 | 2.1 h | 0.54 L/kg | 4.3 mL/min/kg | 102 min | – | – | 1.05 L/kg | 48.7 mL/min/kg | 0.17 | – | – | – | – | –
CN1CCC[C@H]1c1cccnc1 | 2.4 h | 2.6 L/kg | 18 mL/min/kg | 120 min | 3.3 L/kg | 42 mL/min/kg | 2.77 L/kg | 46.3 mL/min/kg | – | – | – | – | – | –
Oc1ccc2c(c1)[C@]13CCCC[C@@]1(O)[C@H](C2)N(CC1CCC1)CC3 | – | – | – | – | 8.4 L/kg | 58 mL/min/kg | 4.8 L/kg | 91.2 mL/min/kg | 0.34 | – | 0.369 | – | – | –
CC1C(=O)O[C@H]2[C@H](O)[C@@]34[C@H]5C[C@@H](C(C)(C)C)[C@@]36C(O)C(=O)O[C@H]6O[C@@]4(C(=O)O5)[C@@]12O (some centres not stated) | – | – | – | – | – | – | 3.5 L/kg | 60 mL/min/kg | – | – | – | – | – | –
CC1(C)SC2C(NC(=O)C(NC(=O)N3CCNC3=O)c3ccccc3)C(=O)N2C1C(=O)O (configuration not stated) | – | – | – | – | 0.27 L/kg | 2.8 mL/min/kg | – | – | – | – | – | – | – | –
Cc1cccc([C@H](C)c2cnc[nH]2)c1C | – | – | – | – | – | – | 3.24 L/kg | 59.4 mL/min/kg | – | – | – | – | – | –

Compound | MRT [1] | Vd [1] | clearance [1] | half-life [1] | Vd ([2]; dog) | clearance ([2]; dog) | Vd ([2]; rat) | clearance ([2]; rat) | fraction unbound ([2]; rat) | fraction unbound [1] | fraction unbound ([2]; dog) | Vd ([2]; monkey) | clearance ([2]; monkey) | fraction unbound ([2]; monkey)
Valproic Acd | – | – | – | – | 0.33 L/kg | 3.03 mL/min/kg | 0.66 L/kg | 4.2 mL/min/kg | 0.366 | – | 0.215 | 0.25 L/kg | 4.2 mL/min/kg | 0.22
[H]/N=C(\N)c1ccc(C(=O)NC(Cc2ccc(O)cc2)C(=O)N2CCC(OCC(=O)O)CC2)cc1 (configuration not stated) | – | – | – | – | 0.75 L/kg | – | 0.24 L/kg | – | – | – | – | 0.29 L/kg | – | –
CONC(C(=O)N=C1C(=O)N2C(C(=O)[O-])=C(C[N+]34CCC(C(N)=O)(CC3)CC4)CS[C@H]12)c1nsc(N)n1 (some centres not stated) | – | – | – | – | 0.23 L/kg | 3.3 mL/min/kg | – | – | – | – | – | – | – | –
CC(C)(N)CC(=O)NC1CCc2ccccc2N(Cc2ccc(-c3ccccc3-c3nn[nH]n3)cc2)C1=O (configuration not stated) | – | – | – | – | 0.34 L/kg | 19.3 mL/min/kg | 0.15 L/kg | 2.7 mL/min/kg | 0.02 | – | 0.86 | 0.16 L/kg | 5.7 mL/min/kg | 0.06
NC(=O)C(c1ccccc1)(c1ccccc1)[C@@H]1CCN(CCc2ccc3c(c2)CCO3)C1 | – | – | – | – | 6.8 L/kg | 39 mL/min/kg | 7 L/kg | 59 mL/min/kg | – | – | – | – | – | –
O=C(CCCCCCC(O)=NO)Nc1ccccc1 | – | – | – | – | – | – | 1.6 L/kg | 130 mL/min/kg | – | – | 0.458 | – | – | –
CCC#CC[C@H](C)[C@H](O)C#C[C@@H]1[C@H]2C/C(=C/COCCCC(=O)O)C[C@H]2C[C@H]1O | – | – | – | – | – | – | 1.5 L/kg | 170 mL/min/kg | – | – | – | 1.6 L/kg | 63.1 mL/min/kg | –
CC(C)=CCN1CC[C@@]2(C)c3cc(O)ccc3C[C@@H]1[C@@H]2C | – | – | – | – | – | – | – | – | – | – | – | 9.62 L/kg | 56.6 mL/min/kg | –
[H]/N=C(\N)c1ccc(CNC(=O)C2CCN2C(=O)C(NCC(=O)O)C2CCCCC2)cc1 (configuration not stated) | – | – | – | – | 0.36 L/kg | 7 mL/min/kg | 0.39 L/kg | 16.9 mL/min/kg | 0.9 | – | 0.89 | – | – | –
COCCc1ccc(OCC(O)CNC(C)C)cc1 (configuration not stated) | – | – | – | – | – | – | 6.3 L/kg | 87.2 mL/min/kg | 0.69 | – | 0.756 | 14 L/kg | 21.9 mL/min/kg | 0.825
O=C(O)CCCCO/N=C(/c1cccnc1)c1cccc(C(F)(F)F)c1 | – | – | – | – | – | – | 0.78 L/kg | 2 mL/min/kg | 0.05 | – | – | – | – | –
Cn1nnc2c(C(N)=O)ncn2c1=O | – | – | – | – | – | – | 0.92 L/kg | 9.8 mL/min/kg | – | – | – | – | – | –
[H]/N=C(\N)N1CCC[C@@H](CNC(=O)CC(NS(=O)(=O)c2ccc3ccccc3c2)C(=O)N(CC(=O)O)C2CC2)C1 (some centres not stated) | – | – | – | – | 0.64 L/kg | – | 0.6 L/kg | – | 0.33 | – | 0.52 | 0.32 L/kg | – | –
COC1CC(OC2C(C)C(=O)OC(C)C(C)C(O)C(C)C(=O)C3(CO3)CC(C)C(OC3OC(C)CC(N(C)C)C3O)C2C)OC(C)C1O (configuration not stated) | – | – | – | – | 1.6 L/kg | 12 mL/min/kg | 6.8 L/kg | 51 mL/min/kg | 0.46 | – | 0.13 | – | – | –
CC1C(=O)O[C@H]2C[C@@]34[C@H]5C[C@@H](C(C)(C)C)[C@@]36C(O)C(=O)O[C@H]6O[C@@]4(C(=O)O5)[C@@]12O (some centres not stated) | – | – | – | – | – | – | 4.3 L/kg | 65 mL/min/kg | – | – | – | – | – | –
O=c1nc[nH]c2c1ncn2[C@H]1CC[C@@H](CO)O1 | – | – | – | – | 0.96 L/kg | 25.3 mL/min/kg | 1.3 L/kg | 150 mL/min/kg | – | – | – | 1.3 L/kg | 27.2 mL/min/kg | –
CCN[C@@H]1C[C@H](N)[C@@H](OC2OC(CN)=CCC2N)[C@H](O)[C@H]1O[C@H]1OC[C@](C)(O)[C@H](NC)[C@H]1O (some centres not stated) | – | – | – | – | 0.34 L/kg | 3.4 mL/min/kg | – | – | – | – | – | – | – | –
